Square brackets hold non-standard residues; d marks the D form. Peptide text beside a SMILES is read from it. * marks the point of attachment. IRDye800CW = CC1(C)C(/C=C/C2=C(Oc3ccc(S(=O)(=O)O)cc3)C(=C/C=C3/N(CCCCS(=O)(=O)O)c4ccc(S(=O)(=O)O)cc4C3(C)C)/CCC2)=[N+](CCCCCC(=O)*)c2ccc(S(=O)(=O)[O-])cc21; Cha = N[C@@H](CC1CCCCC1)C(=O)O; AEEA = NCCOCCOCC(=O)O
Columns and labels:
[1] = tested on: orthotopic GBM (U-87 MG-luc2 cells); test: dynamic NIR imaging of orthotopic GBM on cross sectioned brain (Fluobeam); assay type: in vivo, mice; settings: for tumor mean fluorescence intensity (MFI): 333 ms exposure
Procedure: All experimental procedures in animals were carried out in accordance with the approval by The Animal Experiments Inspectorate, Denmark. 7-10-week-old female nude mice (strain: Rj:NMRI-Foxn1nu/nu, JANVIER LABS, France) were orthotopically xenografted with U-87 MG-luc2 cells.
The orthotopic GBM tumor model was established by inoculation of 500.000 cells in 10 μL ice cold PBS in the right hemisphere (1.5 mm lateral and 0.5 mm posterior to the bregma at 2 mm depth) using a stereotaxic frame (KOPF INSTRUMENTS, Tujunga, Calif., USA) with the automated microinjection pump UMP3 (WPI, Sarasota, Fla., USA). The cells were injected over 5 min with the syringe kept in place for further 3 min before retraction. Tumor growth was subsequently monitored on MRI with the BioSpec 7T (Bruker, Billerica, Mass., USA) with axial and coronal T2-wighted sequences. When the tumor size reached 2-17 mm^3, the animals were included in the fluorescence imaging protocol.
All image acquisition was performed with the Fluobeam system with (Fluosoft version: 2.2.1) (Fluoptics, Grenoble, France). To characterize the in vivo biodistribution and tumor imaging properties, IRDye800-AE344 was administered through tail vein injection into all the GBM bearing mice (n=35) at four different doses: 1 nmol, 3 nmol, 6 nmol, and 12 nmol. Two mice were sacrificed for each time point and the brain was removed and cross sectioned through the tumor for imaging. […] Accordingly, image acquisition was performed at following time points after injection: • 1 nmol: 0.5 h, 1 h, and 2 h • 3 nmol: 1 h, 2 h, 3 h, and 5 h • 6 nmol: 1 h, 3 h, 6 h, and 12 h • 12 nmol: 1 h, 3 h, 5 h, 10 h, 15 h, and 24 h
(§1) Images were analyzed and processed in ImageJ 1.52a, NIH, USA. Signal measurements were performed on the raw images generated by the Fluoptics system. Tumor signal was measured as a mean fluorescence intensity of the whole tumor and background signal was measured as the mean of a representative area with no tumor on the contralateral hemisphere. Presented pictures are contrast enhanced in ImageJ with the Contrast Enhancement (Saturated pixels: 0.3%).

[2] = tested on: orthotopic GBM (U-87 MG-luc2 cells); test: in vivo binding specificity in orthotopic GBM (blocking with AE120, scrambled probe); design: species or system mice; settings: 3 nmol, 1 h
Procedure: The target specificity to uPAR was evaluated by two different methods: competitive blocking with the uPAR targeting peptide AE120 ((DChaFsrYLWSG)2-βAK) and IRDye800 conjugated to a scrambled peptide, AE354 (IRDye800CW-Glu-Glu-NH—CH2—CH2—O—CH2—CH2—O—CH2—CO—NH—CH2—CH2—O—CH2—CH2—O—CH2—CO-Asp-Cha-Glu-(D)Ser-(D)Arg-Tyr-Leu-Glu-Ser-OH) with similar peptide length as the active peptide. The competitive blocking dose of 1.4-2.8 mg AE120 was injected intraperitoneally 15-30 min prior to intravenous injection of 3 nmol IRDye800CW-AE344 and imaged at 1 h (n=5). The scrambled peptide was administered at 3 nmol and the animals were imaged after 1 h (n=4).
as §1

SMILES: CC(C)C[C@H](NC(=O)[C@H](Cc1ccc(O)cc1)NC(=O)[C@@H](CCCNC(=N)N)NC(=O)[C@@H](CO)NC(=O)[C@H](Cc1ccccc1)NC(=O)[C@H](CC1CCCCC1)NC(=O)[C@H](CC(=O)O)NC(=O)COCCOCCNC(=O)COCCOCCNC(=O)[C@H](CCC(=O)O)NC(=O)[C@H](CCC(=O)O)NC(=O)CCCCC[N+]1=C(/C=C/C2=C(Oc3ccc(S(=O)(=O)O)cc3)C(=C/C=C3/N(CCCCS(=O)(=O)O)c4ccc(S(=O)(=O)O)cc4C3(C)C)/CCC2)C(C)(C)c2cc(S(=O)(=O)[O-])ccc21)C(=O)N[C@@H](Cc1c[nH]c2ccccc12)C(=O)N[C@@H](CO)C(=O)O [IRDye800CW-AE344, IRDye800-Glu-Glu-O2Oc-O2Oc-Asp-Cha-Phe-D-ser-D-arg-Tyr-Leu-Trp-Ser-OH] (IRDye800CW-EE[AEEA][AEEA]D[Cha]F[dS][dR]YLWS-OH)
- maximal TBR ([1]; 1 nmol, at 0.5 h): 4.4
- tumor mean fluorescence intensity (MFI) ([1]; 1 nmol, at time of maximal TBR (0.5 h)): 29 a.u.
- maximal TBR ([1]; 3 nmol, at 1 h): 6.6
- tumor mean fluorescence intensity (MFI) ([1]; 3 nmol, at time of maximal TBR (1 h)): 77 a.u.
- TBR ([1]; 6 nmol, 1 h): 4.7
- tumor MFI ([1]; 6 nmol, 1 h): 108 a.u.
- tumor mean fluorescence intensity (MFI) ([1]; 6 nmol, 3 h): 82 a.u.
- TBR (highest) ([1]; 6 nmol, 3 h after injection): 7.0
- TBR ([1]; 6 nmol, 6 h): 6.1
- TBR ([1]; 6 nmol, 12 h): 4.5
- decrease in tumor MFI ([1]; 6 nmol, from 1 h to 3 h): 24%
- TBR ([1]; 6 nmol, from 1 h to 12 h after injection): above 4.5
- peak time of TBR ([1]; 12 nmol): 15 h
- tumor MFI relative to that at 6 nmol ([1]; 12 nmol): 58%
- maximal TBR ([1]; 12 nmol, at 15 h): 6.7
- tumor mean fluorescence intensity (MFI) ([1]; 12 nmol, at time of maximal TBR (15 h)): 48 a.u.
- TBR ([2]; blocked with AE120): 4.6
- normalized TBR (ref: active probe) ([2]; competitively blocked with AE120): 0.70
- TBR ([2]; no blocking): 6.6
- normalized TBR (ref: active probe) ([2]; no blocking): 1.00
